One assay deals with T1, human PPARα (Homo sapiens, UniProt Q07869).
T1 construct: expressed in transfected cells; host or cells: Cos-7 cells (ATCC, CRL-1651)
T1 sequence (Q07869 239-466 limits assumed): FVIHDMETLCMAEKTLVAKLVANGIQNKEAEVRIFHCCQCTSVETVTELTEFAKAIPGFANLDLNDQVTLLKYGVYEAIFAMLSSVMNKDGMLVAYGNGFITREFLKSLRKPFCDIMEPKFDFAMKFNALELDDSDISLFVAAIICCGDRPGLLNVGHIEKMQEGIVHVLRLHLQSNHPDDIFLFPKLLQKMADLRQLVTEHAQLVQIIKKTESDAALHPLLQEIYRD
In words: Reporter gene transactivation, hPPAR-GAL4 alpha. In kind it is cell-based. Conditions: transfected Cos-7 cells, Gal-4 luciferase reporter, 24 hours treatment. A general note: In a reporter assay the amount or activity of a reporter protein is the signal.

The next assay deals with T2, human PPARγ (Homo sapiens, UniProt P37231).
T2 construct: expressed in transfected cells; host or cells: Cos-7 cells (ATCC, CRL-1651)
T2 sequence (P37231 238-503 limits assumed): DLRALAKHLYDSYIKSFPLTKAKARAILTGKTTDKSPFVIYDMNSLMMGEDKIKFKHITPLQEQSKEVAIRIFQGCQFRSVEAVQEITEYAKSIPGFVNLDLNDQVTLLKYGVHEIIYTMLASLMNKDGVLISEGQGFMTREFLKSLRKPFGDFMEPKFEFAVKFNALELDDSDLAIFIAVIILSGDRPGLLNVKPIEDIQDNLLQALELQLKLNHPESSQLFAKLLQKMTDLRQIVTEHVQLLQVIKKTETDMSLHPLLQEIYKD
Kind of assay: Reporter gene transactivation, hPPAR-GAL4 gamma. In kind it is cell-based. Conditions: transfected Cos-7 cells, Gal-4 luciferase reporter, 24 hours treatment.

Assay [1] deals with insulin-resistant male rat (Ico: ZUCKER-fa/fa). In words: Normalization of metabolic parameters (cholesterol, plasma triglycerides) in insulin-resistant rat. The assay is classed as in vivo. As to conditions: oral route, once per day for four days, Zucker fa/fa rat unfed 16-18 hours. As to the method:
Normalization of metabolic parameters (cholesterol, plasma triglycerides) in an insulin-resistant male rat (Ico: ZUCKER-fa/fa), unfed for 16-18 hours, after treatment by oral route, once per day for four days, with the compounds to be evaluated or their administration vehicle.
These metabolic parameters are measured by spectrophotometry at the beginning and the end of each animal's treatment.

Each structure is given as a SMILES string. pEC50: −log10 of the molar value. Like-named read-outs stand apart in the source and are kept apart here.

What is called pEC50 is −log10 of the EC50, conventionally taken in molar units.

Turning to `CCCCn1c(=O)c(OCCCCCc2cccc(OC(C)(C)C(=O)OCC)c2)nn(C)c1=O` [Example 11, Ethyl 2-{3-[5-(4-butyl-2-methyl-3,5-dioxo-2,3,4,5-tetrahydro-[1,2,4]triazin-6-yloxy)-pentyl]-phenoxy}-2-methyl-propionate], the values for the pEC50 on human PPARα and at human PPARγ were 6.00 to 6.52 and 5.52 to 6.00, respectively. The change in vivo at 2.5 mg/kg in assay [1] (96 h, at 2.5 mg/kg, read-out: Plasma cholesterol) was -25%. Further, the change in vivo at 10 mg/kg in assay [1] (96 h, read-out: Plasma cholesterol) was -25%; in assay [1] (96 h, read-out: Plasma triglycerides), -37%. Moreover, the Plasma triglycerides result in assay [1] (at 2.5 mg/kg) was “inactive at 2.5”.
Take `CCCCCCCn1nc(OCCc2cccc(OC(C)(C)C(=O)OCC)c2)c(=O)n(C)c1=O` [Example 2, Ethyl 2-{3-[2-(2-heptyl-4-methyl-3,5-dioxo-2,3,4,5-tetrahydro-[1,2,4]triazin-6-yloxy)-ethyl]-phenoxy}-2-methyl-propionate]: the values for the pEC50 on human PPARα and at human PPARγ were less than 5.00 and roughly 5.00, respectively.
`CCCCCCCn1c(=O)c(OCCCc2cccc(OC(C)(C)C(=O)OCC)c2)nn(C)c1=O` [Example 7, Ethyl 2-{3-[3-(4-heptyl-2-methyl-3,5-dioxo-2,3,4,5-tetrahydro-[1,2,4]triazin-6-yloxy)-propyl]-phenoxy}-2-methyl-propionate]: the pEC50 on human PPARα is 6.00 to 6.52; at human PPARγ, 5.52 to 6.00.
Taken in the same sequence, the figures for `CCCCCCCn1c(=O)c(OCCCCCc2cccc(OC(C)(C)C(=O)OCC)c2)nn(CCCC(F)(F)F)c1=O` [Example 18, Ethyl 2-(3-{5-[4-heptyl-3,5-dioxo-2-(4,4,4-trifluoro-butyl)-2,3,4,5-tetrahydro-[1,2,4]triazin-6-yloxy]-pentyl}-phenoxy)-2-methyl-propionate] were 7.00 to 7.52 and roughly 6.00.
On to `Cn1c(=O)c(NCCc2ccc(SC(C)(C)C(=O)O)cc2)nn(CCCC(F)(F)F)c1=O` [Example 118, 2-Methyl-2-(4-{2-[4-methyl-3,5-dioxo-2-(4,4,4-trifluoro-butyl)-2,3,4,5-tetrahydro-[1,2,4]triazin-6-ylamino]-ethyl}-phenylsulfanyl)-propionic Acid], for which the pEC50 was 5.52 to 6.00 on human PPARα and roughly 5.00 at human PPARγ.
In the case of `CCCCn1c(=O)c(OCCCCCc2cccc(OC(C)(C)C(=O)O)c2)nn(C)c1=O` [Example 12, 2-{3-[5-(4-Butyl-2-methyl-3,5-dioxo-2,3,4,5-tetrahydro-[1,2,4]triazin-6-yloxy)-pentyl]-phenoxy}-2-methyl-propionic Acid], the pEC50 on human PPARα was roughly 7.52; at human PPARγ, 5.52 to 6.00.
As for `CCCCCCCn1nc(N(CCCOc2cccc(OC(C)(C)C(=O)OCC)c2)CCCC(F)(F)F)c(=O)n(C)c1=O` [Example 51, Ethyl 2-(3-{3-[(2-heptyl-4-methyl-3,5-dioxo-2,3,4,5-tetrahydro-[1,2,4]triazin-6-yl)-(4,4,4-trifluoro-butyl)-amino]-propoxy}-phenoxy)-2-methyl-propionate], the pEC50 on human PPARα was 5.00 to 5.52; at human PPARγ it was less than 5.00.
As for `CCCCCCCn1nc(OCCCCOc2cccc(OC(C)(C)C(=O)OCC)c2)c(=O)n(C)c1=O` [Example 36, Ethyl 2-{3-[4-(2-heptyl-4-methyl-3,5-dioxo-2,3,4,5-tetrahydro-[1,2,4]triazin-6-yloxy)-butoxy]-phenoxy}-2-methyl-propionate], the values for the pEC50 at human PPARα and at human PPARγ were 6.00 to 6.52 and 5.00 to 5.52, respectively.
On to `CCCCCCCn1c(=O)c(OCCCc2cccc(OC(C)(C)C(=O)OCC)c2)nn(CCCC(F)(F)F)c1=O` [Example 8, Ethyl 2-(3-{3-[4-heptyl-3,5-dioxo-2-(4,4,4-trifluoro-butyl)-2,3,4,5-tetrahydro-[1,2,4]triazin-6-yloxy]-propyl}-phenoxy)-2-methyl-propionate], for which the pEC50 at human PPARα is roughly 6.52; at human PPARγ, 5.00 to 5.52.
As to `CCOC(=O)C(C)(C)Sc1cccc(CCCCNc2nn(CCCC(F)(F)F)c(=O)n(Cc3ccccc3)c2=O)c1` [Example 100, Ethyl 2-(3-{4-[4-Benzyl-3,5-dioxo-2-(4,4,4-trifluoro-butyl)-2,3,4,5-tetrahydro-[1,2,4]triazin-6-ylamino]-butyl}-phenylsulfanyl)-2-methyl-propionate], the results for the pEC50 at human PPARα and on human PPARγ were 5.52 to 6.00 and less than 5.00, respectively.
`CCCCCCCn1nc(OCCCOc2cccc(OC(C)(C)C(=O)OCC)c2)c(=O)n(C)c1=O` [Example 33, Ethyl 2-{3-[3-(2-heptyl-4-methyl-3,5-dioxo-2,3,4,5-tetrahydro-[1,2,4]triazin-6-yloxy)-propoxy]-phenoxy}-2-methyl-propionate]: the pEC50 on human PPARα and on human PPARγ was roughly 5.52 in each case.
In the case of `CCCCCCCn1c(=O)c(NCCCCc2cccc(OC(C)(C)C(=O)OCC)c2)nn(CCC#N)c1=O` [Example 86, Ethyl 2-(3-{4-[2-(2-cyano-ethyl)-4-heptyl-3,5-dioxo-2,3,4,5-tetrahydro-[1,2,4]triazin-6-ylamino]-butyl}-phenoxy)-2-methyl-propionate], the results for the pEC50 at human PPARα and at human PPARγ were less than 5.00 and roughly 6.00, respectively.
With `CCCCCCCn1nc(NCCCc2cccc(OC(C)(C)C(=O)OCC)c2)c(=O)n(C)c1=O` [Example 64, Ethyl 2-{3-[3-(2-heptyl-4-methyl-3,5-dioxo-2,3,4,5-tetrahydro-[1,2,4]triazin-6-ylamino)-propyl]-phenoxy}-2-methyl-propionate], the negative logarithm of the EC50 (pEC50) at human PPARα was less than 5.00; at human PPARγ, 5.00 to 5.52.
For the molecule `CCOC(=O)/C=C/Cn1nc(NCCc2ccc(OC(C)(C)C(=O)OCC)cc2)c(=O)n(CCCC(F)(F)F)c1=O` [Example 104, Ethyl 4-[6-{2-[4-(1-ethoxycarbonyl-1-methyl-ethoxy)-phenyl]-ethylamino}-3,5-dioxo-4-(4,4,4-trifluoro-butyl)-4,5-dihydro-3H-[1,2,4]triazin-2-yl]-but-2-enoate], the pEC50 on human PPARα is 5.52 to 6.00; on human PPARγ, less than 5.00.
Turning to `CCCCCCCn1nc(NCCCc2ccc(SC(C)(C)C(=O)OCC)cc2)c(=O)n(C)c1=O` [Example 124, Ethyl 2-{4-[3-(2-heptyl-4-methyl-3,5-dioxo-2,3,4,5-tetrahydro-[1,2,4]triazin-6-ylamino)propyl]-phenylsulfanyl}-2-methyl-propionate], the pEC50 is 6.00 to 6.52 on human PPARα and less than 5.00 at human PPARγ.
On to `CCCCCCCn1c(=O)c(NCCCOc2ccc(SC(C)(C)C(=O)OCC)cc2)nn(C)c1=O` [Example 49, Ethyl 2-{4-[3-(4-heptyl-2-methyl-3,5-dioxo-2,3,4,5-tetrahydro-[1,2,4]triazin-6-ylamino)-propoxy]-phenylsulfanyl}-2-methyl-propionate], for which the negative-log EC50 (pEC50) on human PPARα and at human PPARγ was less than 5.00 throughout.
For the molecule `CCCCCCCn1c(=O)c(NCCCCc2cccc(SC(C)(C)C(=O)OCC)c2)nn(Cc2ccccc2)c1=O` [Example 99, Ethyl 2-{3-[4-(2-benzyl-4-heptyl-3,5-dioxo-2,3,4,5-tetrahydro-[1,2,4]triazin-6-ylamino)-butyl]-phenylsulfanyl}-2-methyl-propionate], the pEC50 on human PPARα is less than 5.00; at human PPARγ, 5.00 to 5.52.
With `CCCCCCCn1nc(OCCCCCc2cccc(OC(C)(C)C(=O)OCC)c2)c(=O)n(C)c1=O` [Example 10, Ethyl 2-{3-[5-(2-heptyl-4-methyl-3,5-dioxo-2,3,4,5-tetrahydro-[1,2,4]triazin-6-yloxy)-pentyl]-phenoxy}-2-methyl-propionate], the pEC50 at human PPARα is 6.00 to 6.52; on human PPARγ, roughly 6.00.
With `CCOC(=O)C(C)(C)Oc1cccc(CCCCCOc2nn(CCCC(F)(F)F)c(=O)n(C)c2=O)c1` [Example 9, Ethyl 2-methyl-2-(3-{5-[4-methyl-3,5-dioxo-2-(4,4,4-trifluoro-butyl)-2,3,4,5-tetrahydro-[1,2,4]triazin-6-yloxy]-pentyl}-phenoxy)-propionate], the figures for the pEC50 on human PPARα and at human PPARγ were 5.00 to 5.52 and roughly 5.00, respectively.
`CCCCCCCn1nc(NCCCCc2cccc(OC(C)(C)C(=O)OCC)c2)c(=O)n(CCCCCCC)c1=O` [Example 88, Ethyl 2-{3-[4-(2,4-diheptyl-3,5-dioxo-2,3,4,5-tetrahydro-[1,2,4]triazin-6-ylamino)-butyl]-phenoxy}-2-methyl-propionate]: the pEC50 on human PPARα is roughly 6.52; on human PPARγ, roughly 5.00.
Consider `CCCCCCCn1nc(OCCCc2cccc(OC(C)(C)C(=O)OCC)c2)c(=O)n(C)c1=O` [Example 5, Ethyl 2-{3-[3-(2-heptyl-4-methyl-3,5-dioxo-2,3,4,5-tetrahydro-[1,2,4]triazin-6-yloxy)-propyl]-phenoxy}-2-methyl-propionate], for which the figures for the pEC50 on human PPARα and at human PPARγ were roughly 5.52 and roughly 5.00, respectively.

The values are drawn from patent US7713971B2, “1,2,4-triazine derivatives, preparation and use thereof in human therapy” (Pierre Fabre Medicament, priority 2005, dated 2010).
